Results reported in patent publication US6579519B2, “Sustained release and long residing ophthalmic formulation and the process of preparing the same” (Registrar, University of Delhi, priority 2000, dated 2003).

Assay: Maximum drug dissolved in polymeric micelles
Type: physicochemical
Conditions: room temperature
Description: In 100 mg of the lyophilized powder of the polymeric micelles nanoparticles, an alcoholic solution of indomethacin ([Indomethacin]=33 mg/ml) was added with constant stirring to get clear solution of polymeric micelles containing the drug of desired concentration dispersed in aqueous buffer. […] The drug loaded polymeric micelles was then lyophilized to get dry powder for subsequent use.
In 100 mg of dry powder of polymeric micelles, an alcoholic solution of nimesulide ([nimesulide]=10 mg/ml) was added with constant stirring to get clear solution. […] The drug loaded micelles was then lyophilized to get dry powder for subsequent use.

Maximum of the drug dissolved in polymeric micelles [% w/w] | Compound
8 | CS(=O)(=O)Nc1ccc([N+](=O)[O-])cc1Oc1ccccc1 [nimesulide, N-(4-nitro-2 phenoxyphenyl) methanesulphonamide]
10 | COc1ccc2c(c1)c(CC(=O)O)c(C)n2C(=O)c1ccc(Cl)cc1 [indomethacin, 1-(4 chlorobenzoyl)-5 methoxy-2-methyl-1H-indole-3acetic acid]
